biological target: recombinant Mcl-1 (residues 172-327) (Homo sapiens (Human), UniProt Q07820); test: Fluorescence polarization anisotropy competition assay (FITC-Bak or FITC-Bim BH3 peptide) with Mcl-1; assay type: binding; settings: not given
Sequence (Q07820 172-327): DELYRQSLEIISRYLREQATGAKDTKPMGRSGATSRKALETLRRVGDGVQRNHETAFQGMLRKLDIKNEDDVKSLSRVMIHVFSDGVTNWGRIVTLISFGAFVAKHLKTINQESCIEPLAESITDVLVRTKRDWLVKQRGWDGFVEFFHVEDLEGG

| SMILES | Ki |
| --- | --- |
| Cc1cc(OCCCc2c3n(c4c(-c5c(C)nn(C)c5C)cc(Cl)cc24)CCCN(c2cc(C(=O)O)c4ccn(C)c4c2)C3=O)cc(C)c1Cl [I-244, 6-(9-chloro-11-(3-(4-chloro-3,5-dimethylphenoxy)propyl)-1-oxo-7-(1,3,5-trimethyl-1H-pyrazol-4-yl)-4,5-dihydro-1H-[1,4]diazepino[1,2-a]indol-2(3H)-yl)-1-methyl-1H-indole-4-carboxylic acid] | 101 to 299 nM |

same assay, conditions: Table 2; Ki bins given in nM; FITC-Bak or FITC-Bim peptide competition; Ki converted from IC50; read-out: Ki for Inhibition of Mcl-1

| SMILES | Ki |
| --- | --- |
| Cc1cc(OCCCc2c3n(c4c(-c5c(C)nn(C)c5C)c(Cl)ccc24)[C@H](C)CN(c2cc(C(=O)O)cc4c2ccn4C)C3=O)cc(C)c1Cl [I-170, (R)-4-(7-chloro-10-(3-(4-chloro-3,5-dimethylphenoxy)propyl)-4-methyl-1-oxo-6-(1,3,5-trimethyl-1H-pyrazol-4-yl)-3,4-dihydropyrazino[1,2-a]indol-2(1H)-yl)-1-methyl-1H-indole-6-carboxylic acid] | < 50 nM |
| Cc1cc(OCCCc2c3n(c4c(-c5c(C)nn(C)c5C)c(Cl)ccc24)C[C@H](C)N(Cc2ccc(C(=O)O)cn2)C3=O)cc(C)c1Cl [I-137, (S)-6-((7-chloro-10-(3-(4-chloro-3,5-dimethylphenoxy)propyl)-3-methyl-1-oxo-6-(1,3,5-trimethyl-1H-pyrazol-4-yl)-3,4-dihydropyrazino[1,2-a]indol-2(1H)-yl)methyl)nicotinic acid] | < 50 nM |
| Cc1cc(OCCCc2c(C(=O)NCc3ccc(N4CCCC4)c(C(=O)O)c3)[nH]c3c(-c4c(C)nn(C)c4C)cccc23)cc(C)c1Cl [I-76, 5-((3-(3-(4-chloro-3,5-dimethylphenoxy)propyl)-7-(1,3,5-trimethyl-1H-pyrazol-4-yl)-1H-indole-2-carboxamido)methyl)-2-(pyrrolidin-1-yl)benzoic acid] | 51 to 100 nM |
| Cc1cc(OCCCc2c3n(c4c(-c5c(C)nn(C)c5C)c(Cl)ccc24)CCCN(Cc2cc(OCCCC(C)C)cc(C(=O)O)c2)C3=O)cc(C)c1Cl [I-301, 3-((8-chloro-11-(3-(4-chloro-3,5-dimethylphenoxy)propyl)-1-oxo-7-(1,3,5-trimethyl-1H-pyrazol-4-yl)-4,5-dihydro-1H-[1,4]diazepino[1,2-a]indol-2(3H)-yl)methyl)-5-((4-methylpentyl)oxy)benzoic acid] | < 50 nM |
| Cc1cc(OCCCc2c3n(c4c(-c5c(C)nn(C)c5C)c(Cl)ccc24)CC(C)CN(Cc2ccc(C(=O)O)o2)C3=O)cc(C)c1Cl (stereo not drawn) [I-132, 5-((8-chloro-1-(3-(4-chloro-3,5-dimethylphenoxy)propyl)-4-methyl-1-oxo-7-(1,3,5-trimethyl-1H-pyrazol-4-yl)-4,5-dihydro-1H-[1,4]diazepino[1,2-a]indol-2(3H)-yl)methyl)furan-2-carboxylic acid] | < 50 nM |
| Cc1cc(OCCCc2c(C(=O)NCc3cc(C(=O)O)cc(N4CCN(C(=O)CC(C)C)CC4)n3)[nH]c3c(-c4c(C)nn(C)c4C)c(Cl)ccc23)cc(C)c1Cl [I-284, 2-((6-chloro-3-(3-(4-chloro-3,5-dimethylphenoxy)propyl)-7-(1,3,5-trimethyl-1H-pyrazol-4-yl)-1H-indole-2-carboxamido)methyl)-6-(4-(3-methylbutanoyl)piperazin-1-yl)isonicotinic acid] | < 50 nM |
| Cc1cc(OCCCc2c(C(=O)NCC(=O)NS(=O)(=O)c3ccc(Oc4ccccc4)cc3)[nH]c3ccccc23)cc(C)c1Cl [I-8, 3-(3-(4-chloro-3,5-dimethylphenoxy)propyl)-N-(2-oxo-2-((4-phenoxyphenyl)sulfonamido)ethyl)-1H-indole-2-carboxamide] | 101 to 299 nM |
| Cc1cc(OCCCc2c3n(c4c(-c5c(C)nn(C)c5C)cccc24)CCCN(Cc2ccc(C(=O)O)cc2)C3=O)cc(C)c1Cl [I-83, 4-((11-(3-(4-chloro-3,5-dimethylphenoxy)propyl)-1-oxo-7-(1,3,5-trimethyl-1H-pyrazol-4-yl)-4,5-dihydro-1H-[1,4]diazepino[1,2-a]indol-2(3H)-yl)methyl)benzoic acid] | < 50 nM |
| COC(=O)c1cccc(N2CCN(C(=O)c3[nH]c4cc(Cl)ccc4c3CCCOc3cc(C)c(Cl)c(C)c3)CC2)c1 [I-52, methyl 3-(4-(6-chloro-3-(3-(4-chloro-3,5-dimethylphenoxy)propyl)-1H-indole-2-carbonyl)piperazin-1-yl)benzoate] | 501 to 999 nM |
| Cc1cc(OCCCc2c3n(c4c(-c5c(C)nn(C)c5C)c(Cl)ccc24)CCCN(Cc2cc(CCNC(=O)CC(C)C)cc(C(=O)O)c2)C3=O)cc(C)c1Cl [I-307, 3-((8-chloro-11-(3-(4-chloro-3,5-dimethylphenoxy)propyl)-1-oxo-7-(1,3,5-trimethyl-1H-pyrazol-4-yl)-4,5-dihydro-1H-[1,4]diazepino[1,2-a]indol-2(3H)-yl)methyl)-5-(2-(3-methylbutanamido)ethyl)benzoic acid] | < 50 nM |
| Cc1cc(OCCCc2c3n(c4c(-c5c(C)nn(C)c5C)c(Cl)ccc24)CCN(c2cc(C(=O)O)c4ccn(C)c4c2)C3=O)cc(C)c1Cl [I-162, 6-(7-chloro-10-(3-(4-chloro-3,5-dimethylphenoxy)propyl)-1-oxo-6-(1,3,5-trimethyl-1H-pyrazol-4-yl)-3,4-dihydropyrazino[1,2-a]indol-2(1H)-yl)-1-methyl-1H-indole-4-carboxylic acid] | < 50 nM |
| Cc1cc(OCCCc2c3n(c4c(-c5c(C)nn(C)c5C)c(Cl)ccc24)C(C)CN(Cc2cccc(C(=O)O)c2)C3=O)cc(C)c1Cl (stereo not drawn) [I-131, 3-((7-chloro-10-(3-(4-chloro-3,5-dimethylphenoxy)propyl)-4-methyl-1-oxo-6-(1,3,5-trimethyl-1H-pyrazol-4-yl)-3,4-dihydropyrazino[1,2-a]indol-2(1H)-yl)methyl)benzoic acid] | < 50 nM |
| Cc1cc(OCCCc2c3n(c4c(-c5c(C)nn(C)c5C)c(Cl)ccc24)[C@H](C)CN(Cc2ccc(C(=O)O)cc2)C3=O)cc(C)c1Cl [I-154, (R)-4-((7-chloro-10-(3-(4-chloro-3,5-dimethylphenoxy)propyl)-4-methyl-1-oxo-6-(1,3,5-trimethyl-1H-pyrazol-4-yl)-3,4-dihydropyrazino[1,2-a]indol-2(1H)-yl)methyl)benzoic acid] | < 50 nM |

More lines, now with the values ahead:

| Ki | SMILES |
| --- | --- |
| < 50 nM | Cc1cc(OCCCc2c3n(c4c(-c5c(C)nn(C)c5C)c(Cl)ccc24)CCCN(CC(=O)O)C3=O)cc(C)c1Cl [I-304, 2-(8-chloro-11-(3-(4-chloro-3,5-dimethylphenoxy)propyl)-1-oxo-7-(1,3,5-trimethyl-1H-pyrazol-4-yl)-4,5-dihydro-1H-[1,4]diazepino[1,2-a]indol-2(3H)-yl)acetic acid] |
| < 50 nM | Cc1cc(OCCCc2c(C(=O)Nc3cc(C(=O)O)cc(N(C)CCN(C)C)c3)[nH]c3c(-c4c(C)nn(C)c4C)c(Cl)ccc23)cc(C)c1Cl [I-210, 3-(6-chloro-3-(3-(4-chloro-3,5-dimethylphenoxy)propyl)-7-(1,3,5-trimethyl-1H-pyrazol-4-yl)-1H-indole-2-carboxamido)-5-((2-(dimethylamino)ethyl)(methyl)amino)benzoic acid] |
| < 50 nM | Cc1cc(OCCCc2c3n(c4c(-c5c(C)nn(C)c5C)c(Cl)ccc24)CCCN(c2cc(C(=O)O)cc4c2c(Br)cn4C)C3=O)cc(C)c1Cl [I-256, 3-bromo-4-(8-chloro-11-(3-(4-chloro-3,5-dimethylphenoxy)propyl)-1-oxo-7-(1,3,5-trimethyl-1H-pyrazol-4-yl)-4,5-dihydro-1H-[1,4]diazepino[1,2-a]indol-2(3H)-yl)-1-methyl-1H-indole-6-carboxylic acid] |
| < 50 nM | Cc1cc(OCCCc2c3n(c4c(-c5c(C)nn(C)c5C)c(Cl)ccc24)CCCN(c2csc(C(=O)O)n2)C3=O)cc(C)c1Cl [I-360, 4-(8-chloro-11-(3-(4-chloro-3,5-dimethylphenoxy)propyl)-1-oxo-7-(1,3,5-trimethyl-1H-pyrazol-4-yl)-4,5-dihydro-1H-[1,4]diazepino[1,2-a]indol-2(3H)-yl)thiazole-2-carboxylic acid] |
| < 50 nM | Cc1cc(OCCCc2c(C(=O)N3CCN(c4ccc(C(=O)O)cn4)CC3)[nH]c3c(-c4c(C)nn(C)c4C)c(Cl)ccc23)cc(C)c1Cl [I-344, 6-(4-(6-chloro-3-(3-(4-chloro-3,5-dimethylphenoxy)propyl)-7-(1,3,5-trimethyl-1H-pyrazol-4-yl)-1H-indole-2-carbonyl)piperazin-1-yl)nicotinic acid] |
| < 50 nM | Cc1cc(OCCCc2c3n(c4c(-c5c(C)nn(C)c5C)c(Cl)ccc24)CCCN(c2cc(C(=O)O)c4c(ccn4C)c2)C3=O)cc(C)c1Cl [I-250, 5-(8-chloro-11-(3-(4-chloro-3,5-dimethylphenoxy)propyl)-1-oxo-7-(1,3,5-trimethyl-1H-pyrazol-4-yl)-4,5-dihydro-1H-[1,4]diazepino[1,2-a]indol-2(3H)-yl)-1-methyl-1H-indole-7-carboxylic acid] |
| < 50 nM | Cc1cc(OCCCc2c3n(c4c(-c5c(C)nn(C)c5C)c(Cl)ccc24)CCCN(c2cc(C(=O)O)cc4c2c(C=O)cn4C)C3=O)cc(C)c1Cl [I-254, 4-(8-chloro-11-(3-(4-chloro-3,5-dimethylphenoxy)propyl)-1-oxo-7-(1,3,5-trimethyl-1H-pyrazol-4-yl)-4,5-dihydro-1H-[1,4]diazepino[1,2-a]indol-2(3H)-yl)-3-formyl-1-methyl-1H-indole-6-carboxylic acid] |
| < 50 nM | Cc1cc(OCCCc2c(C(=O)N3CCc4ccc(C(=O)O)cc43)[nH]c3c(-c4c(C)nn(C)c4C)c(Cl)ccc23)cc(C)c1Cl [I-192, 1-(6-chloro-3-(3-(4-chloro-3,5-dimethylphenoxy)propyl)-7-(1,3,5-trimethyl-1H-pyrazol-4-yl)-1H-indole-2-carbonyl)indoline-6-carboxylic acid] |
| < 50 nM | Cc1cc(OCCCc2c(C(=O)N3CCN(c4ccc(C(=O)O)cc4)CC3)[nH]c3c(-c4c(C)nn(C)c4C)c(Cl)ccc23)cc(C)c1Cl [I-335, 4-(4-(6-chloro-3-(3-(4-chloro-3,5-dimethylphenoxy)propyl)-7-(1,3,5-trimethyl-1H-pyrazol-4-yl)-1H-indole-2-carbonyl)piperazin-1-yl)benzoic acid] |

same assay, conditions: Table 2; Ki bins given in μM; FITC-Bak or FITC-Bim peptide competition; Ki converted from IC50; read-out: Ki for Inhibition of Mcl-1

| SMILES | Ki |
| --- | --- |
| Cc1cc(OCCCc2c(C(=O)NCc3ccc(Oc4ccccc4)cc3)[nH]c3ccccc23)cc(C)c1Cl [I-45, 3-(3-(4-chloro-3,5-dimethylphenoxy)propyl)-N-(4-phenoxybenzyl)-1H-indole-2-carboxamide] | 10000 to 50000 nM |
